Measurements published in US7838674B2, “Tetracyclic lactame derivatives” (Novartis AG, priority 2007, dated 2010).
Counter-ions that a name gives are not always drawn.

Assays:
human MK2 = human MK2 (Homo sapiens, UniProt P49137); assay: MAPKAPK2 kinase assay (TR-FRET, Hsp27 peptide substrate)
[1] = target: T1, MAPKAPK2 enzyme (HIS-MK2, Invitrogen PV4019) (Homo sapiens, UniProt P49137); assay: Alternative MAPKAPK2 assay (Caliper microfluidic mobility shift, HSP27-peptide); type: biochemical; settings: HIS-MK2 0.013 nM, ATP 10 μM, 60 min at 30° C.
T1 construct: His; purchased Invitrogen PV4019
T1 sequence (P49137 whole entry): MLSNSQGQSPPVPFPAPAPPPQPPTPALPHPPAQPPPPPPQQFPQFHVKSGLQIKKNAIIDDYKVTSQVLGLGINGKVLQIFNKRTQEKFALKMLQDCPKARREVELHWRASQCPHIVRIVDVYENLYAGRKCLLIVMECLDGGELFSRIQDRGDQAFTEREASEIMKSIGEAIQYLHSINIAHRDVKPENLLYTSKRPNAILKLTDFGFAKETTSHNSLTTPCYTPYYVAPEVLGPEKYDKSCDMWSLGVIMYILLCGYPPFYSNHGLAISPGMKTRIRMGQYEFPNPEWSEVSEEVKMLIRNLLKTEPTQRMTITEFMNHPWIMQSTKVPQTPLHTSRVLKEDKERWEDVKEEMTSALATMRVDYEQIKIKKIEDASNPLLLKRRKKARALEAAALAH

Sequence of human MK2 (P49137 whole entry): as above

Compound	IC50 (human MK2)	IC50 [1]
CN1CCN(c2ccc(-c3cc4c(cn3)CCc3c-4[nH]c4c3C(=O)NCC43CC3)cc2C#N)CC1 [Example 306, 2-(4-Methyl-piperazin-1-yl)-5-(7-oxo-10-spirocyclopropyl-6,7,8,9,10,11-hexahydro-5H-3,8,11-triaza-benzo[a]fluoren-2-yl)-benzonitrile]	0.009 µM	–
COCCOc1cc(-c2cc3c(cn2)CCc2c-3[nH]c3c2C(=O)NCC32CC2)ccc1F [Example 310, 2-[4-Fluoro-3-(2-methoxy-ethoxy)-phenyl]-10-spirocyclopropyl-5,6,8,9,10,11-hexahydro-3,8,11-triaza-benzo[a]fluoren-7-one]	0.097 µM	–
O=C1NC2(CC2)Cn2nc3c(c21)CCc1cnc(/C=C/c2ccccc2)cc1-3 [Example 10, 2-(1-Amino-cyclopropylmethyl)-8-((E)-styryl)-4,5-dihydro-2H-1,2,7-triaza-cyclopenta[a]naphthalene-3-carboxylic acid lactame]	> 0.01 µM	–
COCc1ccc(CNC(=O)c2cccc(-c3cc4c(cn3)CCc3c-4[nH]c4c3C(=O)NC3(CC3)C4)c2)cc1 [Example 273]	0.019 µM	–
O=C1NCC2(CC2)c2[nH]c3c(c21)CCc1cnc(/C=C/c2ccccc2)cc1-3 [Example 2, 2-(1-Aminomethyl-cyclopropyl)-8-((E)-styryl)-4,5-dihydro-1H-pyrrolo[2,3-f]isoquinoline-3-carboxylic acid lactame]	0.021 µM	–
Cn1c2c(c3c1C1(CNC1)CNC3=O)CCc1cnc(-c3ccc(C(F)(F)F)nc3)cc1-2 [Example 169, 2-(3-Aminomethyl-azetidin-3-yl)-8-(6-trifluoromethyl-pyridin-3-yl)-1-methyl-4,5-dihydro-1H-pyrrolo[2,3-f]isoquinoline-3-carboxylic acid lactam hydrochloride]	0.093 µM	–
CN(C)CCOc1ccc(-c2cc3c(cn2)CCc2c-3[nH]c3c2C(=O)NCC32CC2)cc1C#N [Example 308, 2-(2-Dimethylamino-ethoxy)-5-(7-oxo-10-spirocyclopropyl-6,7,8,9,10,11-hexahydro-5H-3,8,11-triaza-benzo[a]fluoren-2-yl)-benzonitrile]	0.015 µM	–
O=C1NC2(CCC2)Cc2[nH]c3c(c21)CCc1cnc(/C=C/c2ccccc2)cc1-3 [Example 4, 2-(1-Amino-cyclobutylmethyl)-8-((E)-styryl)-4,5-dihydro-1H-pyrrolo[2,3-f]isoquinoline-3-carboxylic acid lactame]	0.065 µM	–
COCCOc1ccc(-c2cc3c(cn2)CCc2c-3[nH]c3c2C(=O)NCC32CC2)cc1C#N [Example 309, 2-(2-Methoxy-ethoxy)-5-(7-oxo-10-spirocyclopropyl-6,7,8,9,10,11-hexahydro-5H-3,8,11-triaza-benzo[a]fluoren-2-yl)-benzonitrile]	0.02 µM	–
O=C(NCc1ccccc1)c1cccc(-c2cc3c(cn2)CCc2c-3[nH]c3c2C(=O)NC2(CC2)C3)c1 [Example 276, 2-(1-Amino-cyclopropylmethyl)-8-(3-benzylcarbamoyl)-phenyl-4,5-dihydro-1H-pyrrolo[2,3-f]isoquinoline-3-carboxylic acid lactam]	0.011 µM	–
N#Cc1cc(-c2cc3c(cn2)CCc2c-3[nH]c3c2C(=O)NCC32CC2)ccc1N1CCOCC1 [Example 307, 2-Morpholin-4-yl-5-(7-oxo-10-spirocyclopropyl-6,7,8,9,10,11-hexahydro-5H-3,8,11-triaza-benzo[a]fluoren-2-yl)-benzonitrile]	0.014 µM	–
COc1ccc(-c2cc3c(cn2)CCc2c-3nn3c2C(=O)NC2(CN(C(C)=O)C2)C3)cc1 [Example 12, 2-(1-Acetyl-3-amino-azetidin-3-ylmethyl)-8-(4-methoxy-phenyl)-4,5-dihydro-2H-1,2,7-triaza-cyclopenta[a]naphthalene-3-carboxylic acid lactame]	> 0.01 µM	–
O=C1NCC2(CNC2)c2[nH]c3c(c21)CCc1cnc(-c2ccc(C(F)(F)F)nc2)cc1-3 [Example 166, 2-(3-Aminomethyl-azetidin-3-yl)-8-(6-trifluoromethyl-pyridin-3-yl)-4,5-dihydro-1H-pyrrolo[2,3-f]isoquinoline-3-carboxylic acid lactam hydrochloride]	0.007 µM	–
N#Cc1cncc(-c2cc3c(cn2)CCc2c-3[nH]c3c2C(=O)NCC32CC2)c1 [Example 113, 2-(1-Aminomethyl-cyclopropyl)-8-(5-cyano-pyridin-3-yl)-4,5-dihydro-1H-pyrrolo[2,3-f]isoquinoline-3-carboxylic acid lactam]	–	0.023 µM
Cn1c2c(c3c1-c1nc(-c4cccc(C#N)c4)ncc1CC3)C(=O)NC1(CNC1)C2 [Example 287, 2-(3-Amino-azetidin-3-ylmethyl)-8-(3-cyano-phenyl)-1-methyl-4,5-dihydro-1H-1,7,9-triaza-cyclopenta[a]naphthalene-3-carboxylic acid lactam hydrochloride]	–	0.025 µM
CCN1CC2(C1)c1[nH]c3c(c1C(=O)NC21CC1)CCc1cnc(-c2ccc(OC)nc2)cc1-3 [Example 251, 2-[3-(1-Amino-cyclopropyl)-1-ethyl-azetidin-3-yl]-8-(6-methoxy-pyridin-3-yl)-4,5-dihydro-1H-pyrrolo[2,3-f]isoquinoline-3-carboxylic acid lactam]	–	0.003 µM

The next lines start with the values.

IC50 (human MK2)	IC50 [1]	Compound
0.013 µM	–	O=C1NC2(CNC2)Cc2[nH]c3c(c21)CCc1cnc(-c2cccc(F)c2)cc1-3 [Example 24, 2-(3-Amino-azetidin-3-ylmethyl)-8-(3-fluoro-phenyl)-4,5-dihydro-1H-pyrrolo[2,3-f]isoquinoline-3-carboxylic acid lactam hydrochloride]
0.073 µM	–	O=C1NC2(CC2)Cc2[nH]c3c(c21)CCc1cnc(-c2ccc(N4CCCCC4)nc2)cc1-3 [Example 83, 2-(1-Amino-cyclopropylmethyl)-8-(3,4,5,6-tetrahydro-2H-[1,2′]bipyridinyl-5′-yl)-4,5-dihydro-1H-pyrrolo[2,3-f]isoquinoline-3-carboxylic acid lactam]
0.045 µM	–	O=C1NC2(CC2)Cc2[nH]c3c(c21)CCc1cnc(-c2ccc(OC4CCOCC4)nc2)cc1-3 [Example 96, 2-(1-Amino-cyclopropylmethyl)-8-[6-(tetrahydro-pyran-4-yloxy)-pyridin-3-yl]-4,5-dihydro-1H-pyrrolo[2,3-f]isoquinoline-3-carboxylic acid lactam]
0.079 µM	–	O=C1NC2(CC2)Cc2[nH]c3c(c21)CCc1cnc(-c2cncc(F)c2)cc1-3 [Example 89, 2-(1-Amino-cyclopropylmethyl)-8-(5-fluoro-pyridin-3-yl)-4,5-dihydro-1H-pyrrolo[2,3-f]isoquinoline-3-carboxylic acid lactam]
0.038 µM	–	COc1ccc(-c2cc3c(cn2)CCc2c-3[nH]c3c2C(=O)NC2(CC2)C3)cn1 [Example 88, 2-(1-Amino-cyclopropylmethyl)-8-(6-methoxy-pyridin-3-yl)-4,5-dihydro-1H-pyrrolo[2,3-f]isoquinoline-3-carboxylic acid lactam]
0.042 µM	–	COc1cncc(-c2cc3c(cn2)CCc2c-3[nH]c3c2C(=O)NC2(CC2)C3)c1 [Example 87, 2-(1-Amino-cyclopropylmethyl)-8-(5-methoxy-pyridin-3-yl)-4,5-dihydro-1H-pyrrolo[2,3-f]isoquinoline-3-carboxylic acid lactam]
0.049 µM	–	O=C1NC2(CCC2)Cc2[nH]c3c(c21)CCc1cnc(-c2ccc(OC4CCOCC4)nc2)cc1-3 [Example 108, 2-(1-Amino-cyclobutylmethyl)-8-[6-(tetrahydro-pyran-4-yloxy)-pyridin-3-yl]-4,5-dihydro-1H-pyrrolo[2,3-f]isoquinoline-3-carboxylic acid lactam]
0.091 µM	–	CCOc1ccc(-c2cc3c(cn2)CCc2c-3[nH]c3c2C(=O)NC2(CC2)C3)cn1 [Example 90, 2-(1-Amino-cyclopropylmethyl)-8-(6-ethoxy-pyridin-3-yl)-4,5-dihydro-1H-pyrrolo[2,3-f]isoquinoline-3-carboxylic acid lactam]
0.084 µM	–	O=C1NC2(CCC2)Cc2[nH]c3c(c21)CCc1cnc(-c2ccc(CN4CCOCC4)c(F)c2)cc1-3 [Example 110, 2-(1-Amino-cyclobutylmethyl)-8-(3-fluoro-4-morpholin-4-ylmethyl-phenyl)-4,5-dihydro-1H-pyrrolo[2,3-f]isoquinoline-3-carboxylic acid lactam]
0.063 µM	–	COCCOc1cncc(-c2cc3c(cn2)CCc2c-3[nH]c3c2C(=O)NC2(CCC2)C3)c1 [Example 3, 2-(1-Amino-cyclobutylmethyl)-8-[5-(2-methoxy-ethoxy)-pyridin-3-yl]-4,5-dihydro-1H-pyrrolo[2,3-f]isoquinoline-3-carboxylic acid lactame]
–	0.046 µM	O=C1NC2(CC2)Cc2[nH]c3c(c21)CCc1cnc(-c2ccc(CN4CCCCC4)cc2)cc1-3 [Example 65, 2-(1-Amino-cyclopropylmethyl)-8-(4-piperidin-1-ylmethyl-phenyl)-4,5-dihydro-1H-pyrrolo[2,3-f]isoquinoline-3-carboxylic acid lactam]
–	0.035 µM	Cc1ccc(-c2cc3c(cn2)CCc2c-3[nH]c3c2C(=O)NC2(CC2)C3)cn1 [Example 69, 2-(1-Amino-cyclopropylmethyl)-8-(6-methyl-pyridin-3-yl)-4,5-dihydro-1H-pyrrolo[2,3-f]isoquinoline-3-carboxylic acid lactam]
–	0.011 µM	O=C1NC2(CC2)Cc2[nH]c3c(c21)CCc1cnc(-c2ccc(CO)nc2)cc1-3 [Example 240, 2-(1-Amino-cyclopropylmethyl)-8-(6-hydroxymethyl-pyridin-3-yl)-4,5-dihydro-1H-pyrrolo[2,3-f]isoquinoline-3-carboxylic acid lactam]
–	0.023 µM	Cn1c2c(c3c1-c1cc(-c4ccc(N5CCCCC5)nc4)ncc1CC3)C(=O)NC1(CNC1)C2 [Example 149, 2-(3-Amino-azetidin-3-ylmethyl)-8-(6-piperidinyl-pyridin-3-yl)-1-methyl-4,5-dihydro-1H-pyrrolo[2,3-f]isoquinoline-3-carboxylic acid lactam hydrochloride]
